## CCn1cnc2c(Nc3cccc(NS(=O)(=O)c4ccc(OC)cc4)c3)nc(N[C@H]3CC[C@H](O)CC3)nc21 [Example 82, N-{3-[9-Ethyl-2-(trans-4-hydroxy-cyclo-hexylamino)-9H-purin-6-yl-amino]-phenyl}-4-methoxy-benzenesulfonamide]
  melting point: 140 to 143 °C

Reference: patent US6767906B2, “2-amino-6-anilino-purines and their use as medicaments” (Novartis AG, priority 1999, dated 2004)
